A short description of data set [1]: Absorption at 340nm of NAD or NADP dissolved in aqueous strong alkali. The class given is physicochemical. Particulars: e.g., sodium hydroxide or potassium hydroxide, then gradually decreased. From the text: Such changes continuously occur over several hours and the higher an alkali concentration is, the greater change is. It is, therefore, extremely difficult to find out such a condition that an enzyme reaction is stopped without any influence upon absorption of coenzyme, when an aqueous solution of a strong alkali having no buffer action is employed.

Data set [2] in a line: Stability of absorption intensity of coenzyme at 340nm after dissolution in CAPS buffer solution. As to conditions: for O.D. change at 340nm (change in absorbance per hour, 1 cm cell): coenzyme 1.1 × 10^-4 M, over 3 hours. The class given is physicochemical. The protocol:
1) Coenzyme dissolved in the indicated buffer solution to 1.1 ×
2) Change in absorbance per hour given when measured by the use of a cell
with optical path length of 1 cm.
3) Changes in absorbance of ±0.002A or less over 3 hours immediately
after dissolution are expressed as "not changed".

The next data set has as its system GPT. Nature of the data set: Inhibitory action of CAPS buffer solution on dehydrogenase reaction, serum GPT diagnostic kit. The class given is biochemical, human. The text has this:
(§1) For measuring serum GOT or GPT activity, the reaction can be carried out through addition of malic dehydrogenase to the reaction medium in case of GOT and LDH in case of GPT, together with the enzyme substrates such as α-ketoglutaric acid and L-aspartic acid for the former enzyme or α-ketoglutaric acid and L-alanine for the latter, and a reduced form of NAD (hereinafter referred to as NADH) in either case. Oxaloacetic acid derived from aspartic acid with GOT (in case of GPT, pyruvic acid derived from alanine, the GPT case being hereinafter referred to in the parenthesis) is converted to malic acid (lacetic acid) with malic dehydrogenase (lactic dehydrogenase) and NADH concurrently with oxidation of NADH to NAD, which results in decrease of absorbance at 340nm arising from NADH. An amount of the oxaloacetic acid (pyruvic acid) produced by GOT (GPT) is stoichiometrically equal to that of the NADH to be oxidized and a GOT (GPT) activity can be, therefore, determined from an oxidized amount of NADH which is obtained from an absorbance decrease at 340nm.
(§2) Four enzymes which are widely employed for examination in clinical diagnosis among various serum enzymes, were tested on the inhibitory actions by CAPS buffer solution. […]

The subject of another data set is ALD. Kind of data set: Inhibitory action of CAPS buffer solution on dehydrogenase reaction, serum ALD diagnostic kit. The class given is biochemical, human. From the text: In measuring ALD activity, one can carry out by adding to a reaction medium fructose-1,6-diphosphate which is a substrate, togethe with triose phosphate isomerase (hereinafter referred to as TMI) and glycerol-1-phosphate dehydrogenase (hereinafter referred to as GDH). In this system, the products by ALD are converted to dioxyacetone phosphoric acid, which is then converted to glycerol-1-phosphate by the action of GDH and NADH. NADH is simultaneously oxidized to NAD. Hydrolysis of 1 mole of fructose-1,6-diphosphate with ALD results in oxidation of 2 moles of NADH.
Four enzymes which are widely employed for examination in clinical diagnosis among various serum enzymes, were tested on the inhibitory actions by CAPS buffer solution. Some of our experiments are summarized in the Table 1 wherein changes in absorbance at 340nm during the whole process of the reaction are automatically recorded and expressed in terms of inhibition degree by adding serum to a reaction mixture for proceeding the reaction and then adding thereto CAPS buffer solution with varied concentrations, pH values and amounts added.
1) Diagnostic kits available from Calbiochem U.S.A., used for measuring
GOT, GPT and CPK and diagnostic kits available from Boeringer-Manheim,
West Germany, used for measuring ALD, standard human serum
(Caltrol-Abnormal) available from Calbiochem used for serum. […]

The next data set has as its system GOT. Kind of data set: Inhibitory action of CAPS buffer solution on dehydrogenase reaction, serum GOT diagnostic kit. The class given is biochemical, human.
Text: as §1, §2

The next data set relates to CPK. Kind of data set: Inhibitory action of CAPS buffer solution on dehydrogenase reaction, serum CPK diagnostic kit. The class given is biochemical, human. The method, then: CPK in serum is increased along with injury of skeletal muscle or heart muscle. For determination of CPK activity, creatine phosphoric acid and adenosine-5'-diphosphate (hereinafter referred to as ADP) are employed as substrates and further hexokinase (hereinafter referred to as HK), glucose, glucose-6-phosphate dehydrogenase (hereinafter referred to as G6PDH) and NADP are added to the reaction medium. By the action of CPK, ADP is converted to adenosine-5'-triphosphate (hereinafter referred to as ATP), while glucose in the reaction medium is converted to glucose-6-phosphate by the action of the ATP and HK. Thereafter, the glucose-6-phosphate is converted to 6-phosphogluconic acid by the action of G6PDH and NADP and NADP is converted to a reduced form of NADP (hereinafter referred to as NADPH), along with the conversion, which results in increased absorbance at 340nm. The ATP amount produced by CPK is stoichiometrically equal to that of NADP to be reduced.
as §2

Data set [3] in a line: Influence of alkaline buffer solutions on absorption intensity of coenzyme at 340nm. As to conditions: for Absorption of NAD at 340nm: added to an enzyme reaction mixture containing EDTA. The class given is physicochemical. From the text: Such increasing action on absorption of NAD may continuously vary with the lapse of time and it is, therefore, difficult to correct influence caused therefrom.

The test system of a further data set is dehydrogenase reaction. Kind of data set: Aqueous alkali solution of p-chloromercurybenzoate as stopping agent for dehydrogenase reaction. The class given is biochemical. As to conditions: reaction mixture of commercially available diagnostic kits. From the text: It is also reported in the art that an aqueous alkali solution of p-chloromercurybenzoate is applicable as a stopping agent for dehydrogenase reaction (E. Raabo, Scandinavian Journal of Clinical & Laboratory Investigation, 17, (1965), 265). […] Then, the prior solution seems to be of no practical use.

Setting [4] is: CAPS buffer solution 0.25M,pH12.5.

Results on seven compounds are retold here after patent US3985621A, “Stopping agents for enzyme reactions of dehydrogenase systems” (priority 1974, dated 1976).

SMILES strings stand for the structures. Where only a bound is given, the exact number is not on record here.

As to `NC(=O)c1ccc[n+]([C@@H]2O[C@H](COP(=O)([O-])OP(=O)(O)OC[C@H]3O[C@@H](n4cnc5c(N)ncnc54)[C@H](O)[C@@H]3O)[C@@H](O)[C@H]2O)c1` [NAD, nicotinamide-adenine dinucleotide], the “Time to peak of absorption intensity at 340nm” value in data set [1] lay in the range of 10 to 20 min. The “O.D. change at 340nm (change in absorbance per hour, 1 cm cell)” value is recorded as no more than 0.005 A/hr/cm in data set [2] (CAPS buffer solution 0.25M,pH12.0), no more than 0.010 A/hr/cm in data set [2] (setting [4]), no more than 0.005 A/hr/cm in data set [2] (CAPS buffer solution 0.33M,pH11.5) and no more than 0.010 A/hr/cm in data set [2] (CAPS buffer solution 0.5M,pH11.5). For the same compound, the “Stability of coenzyme in CAPS buffer solution” value in data set [2] (concentration 0.33M or more or pH 12 or higher) is listed as “somewhat reduced”.
For `NC(=O)c1ccc[n+]([C@@H]2O[C@H](COP(=O)([O-])OP(=O)(O)OC[C@H]3O[C@@H](n4cnc5c(N)ncnc54)[C@H](OP(=O)(O)O)[C@@H]3O)[C@@H](O)[C@H]2O)c1` [NADP, nicotinamide adenine dinucleotide phosphate], in data set [1], the “Time to peak of absorption intensity at 340nm” value is 10 to 20 min. Besides, the “O.D. change at 340nm (change in absorbance per hour, 1 cm cell)” value in data set [2] (setting [4]) is reported as no more than 0.005 A/hr/cm. Besides, the “Stability of coenzyme in CAPS buffer solution” value in data set [2] (pH 12.5 or higher) is on record as “also reduced”.
Consider `[Na+].[OH-]` [NaOH soln., sodium hydroxide], for which the “Complete inhibition concentration with aqueous NaOH soln. (Final concentration), GPT” value in the data set on GPT is listed as greater than 0.15 N. Further, the “Complete inhibition concentration with aqueous NaOH soln. (Final concentration), ALD” value in the data set with ALD was greater than 0.1 N. In addition, the “Complete inhibition concentration with aqueous NaOH soln. (Final concentration), GOT” value in the data set with GOT is greater than 0.15 N. In addition, the “Complete inhibition concentration with aqueous NaOH soln. (Final concentration), CPK” value in the data set on CPK was greater than 0.1 N.
`N=C(N)NCCC[C@H](N)C(=O)O` [arginine buffer solution, arginine]: the “Absorption of NAD at 340nm” value in data set [3] is “increase in absorption of NAD at 340nm”.
Still for that read-out and setting: with `NCC(=O)O` [glycine buffer solution, glycine] the entry was “increase in absorption of NAD at 340nm”.
Consider `N=C(N)N` [guanidine buffer solution, guanidine], for which, in data set [3] (at the concentration and pH value to inhibit an action of an enzyme), the “Absorption of NAD” value was “may increase absorption of NAD”.
Turning to `O=C(O)c1cc[c]([Hg][Cl])cc1` [p-chloromercurybenzoate], the “Inhibition of dehydrogenase reaction” value in the data set on dehydrogenase reaction was “only partial inhibition”.
